What was measured:
[1] = biological target: adenosine A2a receptor (A2aR) (Homo sapiens (Human), UniProt P29274); assay: Inhibition of adenosine A2a receptor cAMP signaling pathway (HTRF cAMP, CHO-K1/A2aR cells); format: cell-based
Source text: (§1) Test Example 1. Determination of the inhibition activity of the compounds of the present invention on the adenosine A2a receptor (A2aR) cAMP signaling pathway, the adenosine A2b receptor (A2bR) cAMP signaling pathway, the adenosine A1 receptor (A1R) cAMP signaling pathway and the adenosine A3 receptor (A3R) cAMP signaling pathway.
(§2) The inhibition activity of the compounds of the present invention on the adenosine A2a receptor cAMP signaling pathway, the adenosine A2b receptor cAMP signaling pathway, the adenosine A1 receptor cAMP signaling pathway and the adenosine A3 receptor cAMP signaling pathway was determined by the following method. The experimental method is briefly described as follows:
2.1 Adenosine A2a Receptor
CHO-K1/A2aR cells were cultured in DMEM/F12 medium containing 10% fetal bovine serum and 800 μg/ml bleomycin. The cells were digested with the cell separation buffer during the experiment. The cells were resuspended in the balanced salt buffer containing 20 mM HEPES and 0.1% bovine serum albumin and counted, and the cell density was adjusted to 10^6 cells/ml. In the 384-well plate, each well was added with 5 μl of cell suspension, and 2.5 μl of test compound (4× concentration) formulated with the balanced salt buffer containing 20 mM HEPES, 0.1% bovine serum albumin, 54 μM rolipram and 2.7 U/ml adenosine deaminase, and the plate was incubated at room temperature for 30 minutes. Each well was then added with 2.5 μl of […] (4× concentration) formulated with the balanced salt buffer containing 20 mM HEPES, 0.1% bovine serum albumin, 54 μM rolipram and 2.7 U/ml adenosine deaminase, and the plate was incubated at room temperature for 30 minutes. The final concentrations of the compounds were: 10000, 2000, 400, 80, 16, 3.2, 0.64, 0.128, 0.0256, 0.00512, and 0.001024 nM. The final concentration of […] was 20 nM. Intracellular cAMP concentration was detected with the cAMP dynamic 2 kit. cAMP-d2 and Anti-cAMP-Eu-Cryptate were diluted respectively with the cAMP lysis buffer at a ratio of 1:4. Each well was added with 5 μl of diluted cAMP-d2, followed by addition of 5 μl of diluted Anti-cAMP-Eu-Cryptate, and the plate was incubated at room temperature in the dark for 1 hour. The HTRF signal values were read by the PHERAstar multi-function microplate reader.

[2] = biological target: adenosine A2b receptor (A2bR) (Homo sapiens (Human), UniProt P29275); assay: Inhibition of adenosine A2b receptor cAMP signaling pathway (HTRF cAMP, CHO-K1/A2bR cells); format: cell-based; conditions: Table 3; for IC50: CHO-K1/A2bR cells, ethyl carbazole 1 μM, cAMP HTRF; for IC50 ratio (A2bR/A2aR): selectivity A2bR over A2aR
Sequence of adenosine A2b receptor (A2bR) (P29275 whole entry): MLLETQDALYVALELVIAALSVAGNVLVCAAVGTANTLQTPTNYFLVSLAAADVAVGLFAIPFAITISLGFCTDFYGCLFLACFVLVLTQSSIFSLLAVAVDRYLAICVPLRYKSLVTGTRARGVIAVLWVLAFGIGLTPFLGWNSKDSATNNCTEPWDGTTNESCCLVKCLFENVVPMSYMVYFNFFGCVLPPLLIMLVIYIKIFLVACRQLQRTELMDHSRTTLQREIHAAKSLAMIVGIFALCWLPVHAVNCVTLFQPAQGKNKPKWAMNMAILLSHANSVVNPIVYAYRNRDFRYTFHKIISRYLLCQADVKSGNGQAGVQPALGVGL
Source text: as §1, §2
2.4 Adenosine A2b receptor (A2bR)
CHO-K1/A2bR cells were cultured in DMEM/F12 medium containing 10% fetal bovine serum and 1 mg/ml G418. The cells were digested with the cell separation buffer during the experiment. The cells were resuspended in the balanced salt buffer containing 20 mM HEPES and 0.1% bovine serum albumin and counted, and the cell density was adjusted to 10^6 cells/ml. In the 384-well plate, each well was added with 5 μl of cell suspension, and 2.5 μl of test compound (4× concentration) formulated with the balanced salt buffer containing 20 mM HEPES, 0.1% bovine serum albumin, 54 μM rolipram and 2.7 U/ml adenosine deaminase, and the plate was incubated at room temperature for 30 minutes. Each well was then added with 2.5 μl of […] (4× concentration) (Torcis, 1691/10) formulated with the balanced salt buffer containing 20 mM HEPES, 0.1% bovine serum albumin, 54 μM rolipram and 2.7 U/ml adenosine deaminase, and the plate was incubated at room temperature for 30 minutes. The final concentrations of the compounds were: 100000, 10000, 1000, 100, 10, 1, 0.1 and 0 nM. The final concentration of […] was 1 μM. Intracellular cAMP concentration was detected with the cAMP dynamic 2 kit. cAMP-d2 and Anti-cAMP-Eu-Cryptate were diluted respectively with the cAMP lysis buffer at a ratio of 1:4. Each well was added with 5 μl of diluted cAMP-d2, followed by addition of 5 μl of diluted Anti-cAMP-Eu-Cryptate, and the plate was incubated at room temperature in the dark for 1 hour. The HTRF signal values were read by the PHERAstar multi-function microplate reader.

Sequence of adenosine A2a receptor (A2aR) (P29274 whole entry): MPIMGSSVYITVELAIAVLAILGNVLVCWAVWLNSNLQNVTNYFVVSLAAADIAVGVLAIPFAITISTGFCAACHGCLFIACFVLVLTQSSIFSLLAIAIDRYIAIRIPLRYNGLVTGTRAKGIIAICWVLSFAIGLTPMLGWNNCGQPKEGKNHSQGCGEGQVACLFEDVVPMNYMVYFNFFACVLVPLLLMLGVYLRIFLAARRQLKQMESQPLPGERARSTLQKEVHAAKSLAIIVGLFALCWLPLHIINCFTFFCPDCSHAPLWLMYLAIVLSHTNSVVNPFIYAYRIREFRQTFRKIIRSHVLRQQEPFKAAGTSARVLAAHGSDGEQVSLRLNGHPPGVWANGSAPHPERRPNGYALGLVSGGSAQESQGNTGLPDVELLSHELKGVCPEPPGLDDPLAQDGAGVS

Cc1cc(-c2c(-c3ccc(C)o3)nc(N)n3cnnc23)cc(C(F)(F)F)n1 [Example 8, 8-(2-Methyl-6-(trifluoromethyl)pyridin-4-yl)-7-(5-methylfuran-2-yl)-[1,2,4]triazolo[4,3-c]pyrimidin-5-amine]
IC50 ([1]; Table 1, ethyl carbazole 20 nM): 0.18 nM | IC50 ([1]; Table 3, ethyl carbazole 20 nM): 0.18 nM | IC50 [2]: 203 nM | IC50 ratio (A2bR/A2aR) [2]: 1125

Nc1nc(-c2ccccc2)c(-c2cc(C(F)(F)F)c3[nH]ncc3c2)c2nncn12 [Example 9, 7-Phenyl-8-(7-(trifluoromethyl)-1H-indazol-5-yl)-[1,2,4]triazolo[4,3-c]pyrimidin-5-amine]
IC50 ([1]; Table 1, ethyl carbazole 20 nM): 0.25 nM

Cc1cc(-c2c(-c3ccccc3)nc(N)n3ccnc23)cc(C(F)(F)F)n1 [Example 17, 8-(2-Methyl-6-(trifluoromethyl)pyridin-4-yl)-7-phenylimidazo[1,2-c]pyrimidin-5-amine]
IC50 ([1]; Table 1, ethyl carbazole 20 nM): 0.75 nM

Cc1cc(-c2c(-c3ccccc3)nc(N)n3ccnc23)cc(C)n1 [Example 31, 8-(2,6-Dimethylpyridin-4-yl)-7-phenylimidazo[1,2-c]pyrimidin-5-amine]
IC50 ([1]; Table 1, ethyl carbazole 20 nM): 0.93 nM

Cc1cc(-c2c(-c3ccccc3)nc(N)n3cnnc23)ccn1 [Example 12, 8-(2-Methylpyridin-4-yl)-7-phenyl-[1,2,4]triazolo[4,3-c]pyrimidin-5-amine]
IC50 ([1]; Table 1, ethyl carbazole 20 nM): 0.63 nM

Cc1cc(-c2c(-c3cccc(F)c3)nc(N)n3cnnc23)cc(C(F)(F)F)n1 [Example 29, 7-(3-Fluorophenyl)-8-(2-methyl-6-(trifluoromethyl)pyridin-4-yl)-[1,2,4]triazolo[4,3-c]pyrimidin-5-amine]
IC50 ([1]; Table 1, ethyl carbazole 20 nM): 0.55 nM | IC50 ([1]; Table 3, ethyl carbazole 20 nM): 0.55 nM | IC50 [2]: 86.3 nM | IC50 ratio (A2bR/A2aR) [2]: 157

Cc1cc(-c2c(-c3ccc(Cl)cc3F)nc(N)n3cnnc23)cc(Cl)n1 [Example 50, 7-(4-Chloro-2-fluorophenyl)-8-(2-chloro-6-methylpyridin-4-yl)-[1,2,4]triazolo[4,3-c]pyrimidin-5-amine]
IC50 ([1]; Table 1, ethyl carbazole 20 nM): 3.55 nM | IC50 ([1]; Table 3, ethyl carbazole 20 nM): 3.55 nM | IC50 [2]: 255 nM | IC50 ratio (A2bR/A2aR) [2]: 72

Cc1cc(-c2c(-c3ccc(F)cc3)nc(N)n3ccnc23)cc(C)n1 [Example 32, 8-(2,6-Dimethylpyridin-4-yl)-7-(4-fluorophenyl)imidazo[1,2-c]pyrimidin-5-amine]
IC50 ([1]; Table 1, ethyl carbazole 20 nM): 1 nM

CC(C)n1cc(-c2c(-c3ccccc3)nc(N)n3cnnc23)ccc1=O [Example 43, 5-(5-Amino-7-phenyl-[1,2,4]triazolo[4,3-c]pyrimidin-8-yl)-1-isopropylpyridin-2(1H)-one]
IC50 ([1]; Table 1, ethyl carbazole 20 nM): 0.2 nM

Cc1cc(-c2c(-c3ccccc3F)nc(N)n3cnnc23)cc(C(F)(F)F)n1 [Example 33, 7-(2-Fluorophenyl)-8-(2-methyl-6-(trifluoromethyl)pyridin-4-yl)-[1,2,4]triazolo[4,3-c]pyrimidin-5-amine]
IC50 ([1]; Table 1, ethyl carbazole 20 nM): 1.77 nM | IC50 ([1]; Table 3, ethyl carbazole 20 nM): 1.77 nM | IC50 [2]: 134 nM | IC50 ratio (A2bR/A2aR) [2]: 76

Nc1nc(-c2ccccc2)c(-c2cc(F)c3[nH]ncc3c2)c2nncn12 [Example 6, 8-(7-Fluoro-1H-indazol-5-yl)-7-phenyl-[1,2,4]triazolo[4,3-c]pyrimidin-5-amine]
IC50 ([1]; Table 1, ethyl carbazole 20 nM): 0.14 nM

Cc1cc(-c2c(-c3ccccc3)nc(N)n3cnnc23)cc(C2CC2)n1 [Example 30, 8-(2-Cyclopropyl-6-methylpyridin-4-yl)-7-phenyl-[1,2,4]triazolo[4,3-c]pyrimidin-5-amine]
IC50 ([1]; Table 1, ethyl carbazole 20 nM): 0.77 nM | IC50 ([1]; Table 3, ethyl carbazole 20 nM): 0.77 nM | IC50 [2]: 70.9 nM | IC50 ratio (A2bR/A2aR) [2]: 92

Cc1cc(-c2c(-c3ccc(Cl)cc3)nc(N)n3cnnc23)cc(C(F)(F)F)n1 [Example 14, 7-(4-Chlorophenyl)-8-(2-methyl-6-(trifluoromethyl)pyridin-4-yl)-[1,2,4]triazolo[4,3-c]pyrimidin-5-amine]
IC50 ([1]; Table 1, ethyl carbazole 20 nM): 1.56 nM

CCc1cc(-c2c(-c3ccccc3)nc(N)n3cnnc23)cc(C)n1 [Example 26, 8-(2-Ethyl-6-methylpyridin-4-yl)-7-phenyl-[1,2,4]triazolo[4,3-c]pyrimidin-5-amine]
IC50 ([1]; Table 1, ethyl carbazole 20 nM): 0.42 nM

Nc1nc(-c2ccccc2)c(-c2ccnc(Cl)c2)c2nncn12 [Example 38, 8-(2-Chloropyridin-4-yl)-7-phenyl-[1,2,4]triazolo[4,3-c]pyrimidin-5-amine]
IC50 ([1]; Table 1, ethyl carbazole 20 nM): 2.18 nM

COc1cc(-c2c(-c3ccccc3)nc(N)n3cnnc23)cc(C)n1 [Example 25, 8-(2-Methoxy-6-methylpyridin-4-yl)-7-phenyl-[1,2,4]triazolo[4,3-c]pyrimidin-5-amine]
IC50 ([1]; Table 1, ethyl carbazole 20 nM): 0.32 nM

Nc1nc(-c2ccccc2)c(-c2ccncc2)c2nncn12 [Example 37, 7-Phenyl-8-(pyridin-4-yl)-[1,2,4]triazolo[4,3-c]pyrimidin-5-amine]
IC50 ([1]; Table 1, ethyl carbazole 20 nM): 2.11 nM

Cc1cc(-c2c(-c3ccc(F)cc3)nc(N)n3cnnc23)cc(C(F)(F)F)n1 [Example 16, 7-(4-Fluorophenyl)-8-(2-methyl-6-(trifluoromethyl)pyridin-4-yl)-[1,2,4]triazolo[4,3-c]pyrimidin-5-amine]
IC50 ([1]; Table 1, ethyl carbazole 20 nM): 0.63 nM | IC50 ([1]; Table 3, ethyl carbazole 20 nM): 0.63 nM | IC50 [2]: 122 nM | IC50 ratio (A2bR/A2aR) [2]: 194

Cc1cc(-c2c(-c3ccccc3)nc(N)n3cnnc23)cc(C(F)(F)F)n1 [Example 1, 8-(2-Methyl-6-(trifluoromethyl)pyridin-4-yl)-7-phenyl-[1,2,4]triazolo[4,3-c]pyrimidin-5-amine]
IC50 ([1]; Table 1, ethyl carbazole 20 nM): 0.23 nM | IC50 ([1]; Table 3, ethyl carbazole 20 nM): 0.23 nM | IC50 [2]: 58.5 nM | IC50 ratio (A2bR/A2aR) [2]: 254

Cc1cc(-c2c(-c3ccc(Cl)cc3)nc(N)n3cnnc23)cc(Cl)n1 [Example 36, 8-(2-Chloro-6-methylpyridin-4-yl)-7-(4-chlorophenyl)-[1,2,4]triazolo[4,3-c]pyrimidin-5-amine]
IC50 ([1]; Table 1, ethyl carbazole 20 nM): 3.47 nM

Nc1nc(-c2ccccc2)c(-c2cc(Cl)nc(C(F)(F)F)c2)c2nncn12 [Example 23, 8-(2-Chloro-6-(trifluoromethyl)pyridin-4-yl)-7-phenyl-[1,2,4]triazolo[4,3-c]pyrimidin-5-amine]
IC50 ([1]; Table 1, ethyl carbazole 20 nM): 0.23 nM

Cc1cc(-c2c(-c3ccc(F)cc3F)nc(N)n3cnnc23)cc(C)n1 [Example 40, 7-(2,4-Difluorophenyl)-8-(2,6-dimethylpyridin-4-yl)-[1,2,4]triazolo[4,3-c]pyrimidin-5-amine]
IC50 ([1]; Table 1, ethyl carbazole 20 nM): 1.75 nM

Cc1cc(-c2c(-c3ccc(Cl)cc3)nc(N)n3cnnc23)cc(CF)n1 [Example 53, 7-(4-Chlorophenyl)-8-(2-(fluoromethyl)-6-methylpyridin-4-yl)-[1,2,4]triazolo[4,3-c]pyrimidin-5-amine]
IC50 ([1]; Table 1, ethyl carbazole 20 nM): 0.35 nM

Cc1cc(-c2c(-c3ccccc3)nc(N)n3ccnc23)cc(Cl)n1 [Example 24, 8-(2-Chloro-6-methylpyridin-4-yl)-7-phenylimidazo[1,2-c]pyrimidin-5-amine]
IC50 ([1]; Table 1, ethyl carbazole 20 nM): 0.27 nM

Cc1cc(-c2c(-c3ccc(Cl)cc3)nc(N)n3cnnc23)cc(C)n1 [Example 54, 7-(4-Chlorophenyl)-8-(2,6-dimethylpyridin-4-yl)-[1,2,4]triazolo[4,3-c]pyrimidin-5-amine]
IC50 ([1]; Table 1, ethyl carbazole 20 nM): 0.48 nM

Cc1cc(-c2c(-c3ccccc3)nc(N)n3cc(C)nc23)cc(C)n1 [Example 21, 8-(2,6-Dimethylpyridin-4-yl)-2-methyl-7-phenylimidazo[1,2-c]pyrimidin-5-amine]
IC50 ([1]; Table 1, ethyl carbazole 20 nM): 2.46 nM

Cc1ccc(-c2nc(N)n3cnnc3c2-c2cc(C)nc(Cl)c2)cc1 [Example 35, 8-(2-Chloro-6-methylpyridin-4-yl)-7-(p-tolyl)-[1,2,4]triazolo[4,3-c]pyrimidin-5-amine]
IC50 ([1]; Table 1, ethyl carbazole 20 nM): 0.18 nM
